Measurements: US6028188A (priority 1994, dated 2000)
[mp] = methylphosphonate linkage

Tests used:
[1] = system: pGL2 (luciferase); assay type: cell-based; conditions: for percent gene expression relative to no-oligomer treatment, pGL2 (splicing, no match): 1.0 μM; for inhibition of luciferase expression (in words): pGL2
Experimental: All cultures were maintained at 37° C.
This assay was performed generally as follows according to standard procedures. 20 μl of lysate was combined with 100 μl of luciferase assay reagent (Promega) and counted in a scintillation counter (Packard) within 20 seconds (as recommended by Promega).
In order to determine that the effect against pG1035 was not due to non-specific interference of splicing in general, pGL2 was used as an additional control. pGL2 encodes the luciferase gene and contains an intron that is unrelated to the intron in pG1035.

[2] = system: pG1035 (SplicerCAT); assay: Inhibition of CAT expression, splicing reporter pG1035, in COS-7 cells; conditions: for reduction of CAT expression: pG1035, 1.0 micromolar
[3] = system: pG1036 (wild-type CAT); assay: CAT expression, non-splicing reporter pG1036, in COS-7 cells; conditions: for inhibition of expression of non-splicing CAT gene (in words): pG1036
[4] = system: splice acceptor site; assay: Tm of splice acceptor site oligomers; assay type: binding; conditions: Table XIII
Experimental: (§1) Annealing reaction mixtures contained equimolar amounts of Oligomer and RNA target Oligomer (2.4 μM total strand concentration), 20 mM potassium phosphate (pH 7.2), 100 mM sodium chloride, 0.1 mM EDTA and 0.03% potassium sarkosylate. The reaction mixtures were heated to 80° C. and then slowly cooled to 4° C. over about 4 to 6 hours. The annealed samples were then transferred to 1 cm quartz cuvettes and Tm was monitored by absorbance at 260 nm as a function of temperature using a Varian Cary Model 2E Spectrophotometer containing a temperature controlled 6×6 sample holder which interfaced with an IBM compatible PC computer. The temperature was varied from 5° C. to 80° C. at a ramp rate of 1° C./minute. The Tm for each melt profile is determined as the point corresponding to the maximum of the first derivative of the curve corresponding to absorbance versus temperature.
The results are given as percent gene expression relative to no-oligomer treatment of cells. The concentration is given above the data columns in micromolar. CAT levels were determined in triplicate as previously given and the experiment has been repeated multiple times. The Tm of the oligomers was determined as previously given.

[5] = system: complementary RNA targets; assay: Tm with complementary RNA target, oligomers 5'-TAG-CTT-CCT-TAG-CTC-CTG-3'; assay type: binding; conditions: Table XI
Experimental: as §1
The oligomers were synthesized according to methods set forth in the Examples herein and had mixed oligonucleoside sequences complementary to biologically relevant mRNA targets. Tm determinations were done according to the methods described in the proceeding Examples.

Row | Substance | percent gene expression relative to no-oligomer treatment, pGL2 (splicing, no match) [1] [%] | inhibition of luciferase expression (in words) [1] | percent gene expression relative to no-oligomer treatment, pG1035 (splicing) ([2]; 0.1 μM) [%] | percent gene expression relative to no-oligomer treatment, pG1035 (splicing) ([2]; 0.3 μM) [%] | percent gene expression relative to no-oligomer treatment, pG1035 (splicing) ([2]; head printed 0.1) [%] | reduction of CAT expression [2] [%] | percent gene expression relative to no-oligomer treatment, pG1036 (non-splicing) ([3]; 0.1 μM) [%] | percent gene expression relative to no-oligomer treatment, pG1036 (non-splicing) ([3]; 0.3 μM) [%] | percent gene expression relative to no-oligomer treatment, pG1036 (non-splicing) ([3]; 1.0 μM) [%] | inhibition of expression of non-splicing CAT gene (in words) [3] | Tm [4] [°C] | Tm(° C. RNA) [5] [°C]
1 | 3373-1B: 18 mer 2'-O-Me (MP(Rp)/DE), 5'-gag aga gag aga ggt tcg-3' [SEQ. ID. NO. 13] (GAGAGAGAGAGAGGTTCG; all 2'-O-methyl, backbone, methylation of C and T or U not given here; Rp methylphosphonate and diester linkages) [Oligomer 3373-1B] | 127 | not inhibited in any way | 59 | 31 | 10 | 90 | 95 | 85 | 81 | Neither oligomer inhibited the expression of the non-splicing CAT gene, pG1036, significantly | 80 | 
2 | 1630-1: 5'-TAG-CTT-CCT-TAG-CTC-CTG-3' [SEQ. ID. NO. 5], Racemic MP (DNA TAGCTTCCTTAGCTCCTG; all [mp], sugars by position and methylation of C not given here) [Oligomer 1630-1] |  |  |  |  |  |  |  |  |  |  |  | 39.0
3 | 3373-1A: 24 mer, 2'-O-Me (MP(Rp)/DE), 5'-ccc tga gag aga gag aga ggt tcg [SEQ. ID. NO. 12] (CCCTGAGAGAGAGAGAGAGGTTCG; all 2'-O-methyl, backbone, methylation of C and T or U not given here; Rp methylphosphonate and diester linkages) [Oligomer 3373-1A] | 127 | not inhibited in any way | 81 | 48 | 26 | 74 | 91 | 89 | 105 | Neither oligomer inhibited the expression of the non-splicing CAT gene, pG1036, significantly | 84 | 
